# In publication PMC11992225, “Antibacterial compounds against non-growing and intracellular bacteria” (npj Antimicrobials and Resistance, 2025):
# Like-named read-outs stand apart in the source and are kept apart here.
# Tests used:
# [1] = test system: P. aeruginosa DSM1117; assay: MIC, standard microdilution assay, growing P. aeruginosa; assay type: cell-based, Pseudomonas aeruginosa; conditions: Pseudomonas aeruginosa, DSM1117, P. aeruginosa
# Outline: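 Standard microdilution protocol, triplicate wells. For S. flexneri the growth medium is TSB. The other three strains are grown in HEPES-buffered (40 mM, pH 7.4) CA-MHB, and UPEC is also run at pH 5.5 in LPM containing 30 mM MES.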
# [2] = test system: non-growing UPEC CFT073; assay: Dilution-regrowth assay (screen, hit validation, dose-response) on stationary-phase UPEC; assay type: cell-based, Escherichia coli; conditions: Escherichia coli; E. coli, pH 7.4; regrowth delay of non-growing bacteria, 1:4 CA-MHB, 24 h treatment, OD600 6 h after 2500-fold dilution; read-out: EC50
# Outline: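 Regrowth (OD600 after 6 h, 37 °C) of diluted non-growing CFT073, following 24 h compound treatment of 24 h stationary cultures, defines activity relative to untreated control. Screen at 20 µM, validation at 20, 10, 5 µM (duplicates), dose–response in three biological replicates fitted by five-parameter logistic.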
# [3] = test system: non-growing P. aeruginosa DSM1117; assay: Dose-dependent killing analysis (CFU spot-plating) of stationary-phase P. aeruginosa; assay type: cell-based, Pseudomonas aeruginosa; conditions: at 2.5 µM, 1:4 CA-MHB pH 7.4, 24 h treatment
# Procedure: The cultures were grown and treated for 24 h in 1:4 CA-MHB (pH 7.4).
# For survival analysis, bacteria were cultivated as described for the dose–response dilution-regrowth assay. Assays with UPEC were conducted at the CBCS screening facility using 96-well plates with a 200 μl sample volume, and compounds were dispensed using the Echo® (Labcyte) system. P. aeruginosa and S. aureus samples were treated according to the protocol used for the dilution-regrowth experiments. Treated samples were serially diluted 10-fold in PBS, and 10 μl drops were spot-plated onto rectangular LB agar plates using either a Beckman NXP robot (for UPEC) or an Integra VIAFLO96 electronic pipette (for P. aeruginosa and S. aureus). The LB agar plates were incubated overnight at 37 °C and scanned. Colonies were counted at the spots of the lowest dilution where individual colonies could be accurately distinguished. Each colony was manually marked on a separate image layer using the GNU Image Manipulation Program, and counted using NIST’s Integrated Colony Enumerator (NICE 1.4) software. The experiments were performed in three biological replicates.
structure (smiles),measurement,setting,value
O=C(O)c1cn(C2CC2)c2cc(N3CCNCC3)c(F)cc2c1=O [Ciprofloxacin],MIC,"[1]; 1:4 diluted CA-MHB pH 7.4, read-out: MIC (μM) 1:4 CA-MHB",2 µM
same,MIC,"[1]; CA-MHB pH 7.4, read-out: MIC (μM) CA-MHB",2 µM
same,EC50,[2],1380 nM
same,"reduction of bacterial counts, non-growing P. aeruginosa",[3],more than four
